Reference: patent US7973047B2, “Beta-Secretase modulators and methods of use” (Amgen Inc., priority 2010, dated 2011)
Where two headings read alike, the source gives them in different places.

System: Aβ40 in conditioned medium of cells stably expressing Amyloid Precursor Protein (APP)
Assay: BACE cell-based assay: Aβ40 in conditioned medium by sandwich ELISA
Conditions: read-out: Cell Assay
Summary of the method: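 APP-stable cells grown 24 h in DMEM/10% FBS, then exposed to compounds for 24 h in a 10-point dose series starting at 100 or 10 μM, 0.1% DMSO final. Medium Aβ40 measured by pAb40/biotinylated 6E10 sandwich ELISA with Europium time-resolved fluorescence; IC50 from percent inhibition.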

[1] = cell based assay data, Table 4, unit inferred
[2] = cell based assay data of Table 4, unit inferred

IC50 [1] [nM]	IC50 [2] [nM]	SMILES	further results
26.7	–	CC(=O)N[C@@H](Cc1ccc(Cl)cc1)[C@H](O)CN[C@H]1C[C@]2(C[C@H](C)C2)Oc2ncc(CC(C)(C)C)cc21 [compound 714, N-((1S,2R)-1-((4-chlorophenyl)methyl)-3-(((1s,3R,4′S)-6′-(2,2-dimethylpropyl)-3-methyl-3′,4′-dihydrospiro[cyclobutane-1,2′-pyrano[2,3-b]pyridin]-4′-yl)amino)-2-hydroxypropyl)acetamide]	–
–	936	COC(=O)N[C@@H](Cc1ccc(Cl)cc1)[C@H](O)CN[C@H]1CC2(CCC2)Oc2ncc(CC(C)(C)C)cc21 [compound 627]	–
38.9	–	CC(=O)N[C@@H](Cc1cccc(F)c1F)[C@H](O)CN[C@H]1C[C@]2(C[C@@H](C)C2)Oc2ncc(CC(C)(C)C)cc21 [compound 768, N-((1S,2R)-1-((2,3-difluorophenyl)methyl)-3-(((1r,3S,4′S)-6′-(2,2-dimethylpropyl)-3-methyl-3′,4′-dihydrospiro[cyclobutane-1,2′-pyrano[2,3-b]pyridin]-4′-yl)amino)-2-hydroxypropyl)acetamide]	–
–	3.04	CC(=O)N[C@@H](Cc1ccncc1)[C@H](O)CN[C@H]1CC2(CCC2)Oc2ncc(CC(C)(C)C)cc21 [compound 635, N-((1S,2R)-3-(((4′S)-6′-(2,2-dimethylpropyl)-3′,4′-dihydrospiro[cyclobutane-1,2′-pyrano[2,3-b]pyridin]-4′-yl)amino)-2-hydroxy-1-(4-pyridinylmethyl)propyl)acetamide]	–
132	–	CC(=O)N[C@@H](Cc1ccc(Cl)cc1)[C@H](O)CN[C@H]1CC2(CCCC2)Oc2ncc(CC(C)(C)C)cc21 [compound 817]	–
–	1.56	CC(=O)N[C@@H](Cc1cccc(F)c1)[C@H](O)CN[C@H]1CC2(CCC2)Oc2c1cc(CC(C)(C)C)nc2N [compound 605]	–
–	524	CC(=O)N[C@@H](Cc1ccc(F)cc1)[C@H](O)CN[C@@H]1c2cc(CC(C)(C)C)cnc2N2CCC[C@@H]12 [compound 683]	–
–	189	CC(=O)N[C@@H](Cc1ccc(C(F)(F)F)cc1)[C@H](O)CN[C@H]1CC2(CCC2)Oc2ncc(CC(C)(C)C)cc21 [compound 648]	–
–	57	CC(C)(C)Cc1cnc2c(c1)[C@@H](NC[C@@H](O)[C@H](Cc1ccc(F)cc1)NC(=O)C(F)(F)F)CC1(CCC1)O2 [compound 631]	–
–	≥ 10000	CC(=O)N[C@@H](Cc1ccc(Cl)cc1)[C@H](O)CN[C@H]1C[C@@]2(CC[C@@H]2C)Oc2ncc(CC(C)(C)C)cc21 [compound 626]	–
–	922	CCCc1scnc1C[C@H](NC(C)=O)[C@H](O)CN[C@H]1CC2(CCC2)Oc2ncc(CC(C)(C)C)cc21 [compound 637, N-((1S,2R)-3-(((4′S)-6′-(2,2-dimethylpropyl)-3′,4′-dihydrospiro[cyclobutane-1,2′-pyrano[2,3-b]pyridin]-4′-yl)amino)-2-hydroxy-1-((5-propyl-1,3-thiazol-4-yl)methyl)propyl)acetamide]	–
11.2	–	CC(=O)N[C@@H](Cc1cc(F)cc(F)c1)[C@H](O)CN[C@H]1CC2(CCC2)Oc2nc(F)c(CC(C)C)cc21 [compound 853]	–
1.72	–	CC(=O)N[C@@H](Cc1cc(F)cc(F)c1)[C@H](O)CN[C@H]1CC2(CCC2)Oc2ncc(CC(C)C)cc21 [compound 846]	–
–	2.42	CC(=O)N[C@@H](Cc1cccc(C#N)c1)[C@H](O)CN[C@H]1CC2(CCC2)Oc2ncc(CC(C)(C)F)cc21 [compound 524]	–
–	4.25	CCNc1cc(C[C@H](NC(C)=O)[C@H](O)CN[C@H]2CC3(CCC3)Oc3ncc(CC(C)(C)C)cc32)ccc1F [compound 710]	–
–	23.4	CC(=O)N[C@@H](Cc1ccccc1Cl)[C@H](O)CN[C@H]1CC2(CCC2)Oc2ncc(CC(C)(C)C)cc21 [compound 708]	–
3.58	–	CC(=O)N[C@@H](Cc1cc(F)cc(Cl)c1)[C@H](O)CN[C@H]1CC2(CCC2)Oc2ncc(CC(C)(C)F)cc21 [compound 837]	–
2.03	–	CC(=O)N[C@@H](Cc1cc(F)cc(F)c1F)[C@H](O)CN[C@H]1CC2(CCC2)Oc2ncc(CC(C)(C)C)cc21 [compound 871]	–
68.9	–	CC(=O)N[C@@H](Cc1cc(F)cc(Cl)c1)[C@H](O)CN[C@H]1CC(C)(C)Oc2c1cc(CC(C)(C)C)nc2N(C)C [compound 757]	–
–	385	CC(=O)N[C@@H](Cc1ccc(Cl)cc1)[C@H](O)CN[C@H]1CC2(CCC2)Oc2nc(F)c(CC(C)(C)C)cc21 [compound 667]	–
3.56	–	CC(=O)N[C@@H](Cc1cc(F)cc(F)c1)[C@H](O)CN[C@H]1CC(C)(C)Oc2cnc(CC(C)(C)C)cc21 [compound 800]	–
–	2.98	CC(=O)N[C@@H](Cc1cccc(F)c1)[C@H](O)CN[C@H]1C[C@]2(C[C@H](C)C2)Oc2ncc(CC(C)C)cc21 [compound 617, N-((1S,2R)-1-((3-fluorophenyl)methyl)-2-hydroxy-3-(((1s,3R,4′S)-3-methyl-6′-(2-methylpropyl)-3′,4′-dihydrospiro[cyclobutane-1,2′-pyrano[2,3-b]pyridin]-4′-yl)amino)propyl)acetamide]	–
12.1	–	CCc1cnc2c(c1)[C@@H](NC[C@@H](O)[C@H](Cc1cc(F)cc(F)c1)NC(C)=O)CC1(CCC1)O2 [compound 874]	–
–	62	CC(=O)N[C@@H](Cc1ccc(Cl)cc1)[C@H](O)CN[C@H]1C[C@]2(CC[C@@H]2C)Oc2ncc(CC(C)(C)C)cc21 [compound 620]	–
1.14	–	CC(=O)N[C@@H](Cc1cc(F)cc(F)c1)[C@H](O)CN[C@H]1C[C@]2(C[C@H](C)C2)Oc2ncc(CC(C)(C)C)cc21 [compound 765, N-((1S,2R)-1-((3,5-difluorophenyl)methyl)-3-(((1s,3R,4′S)-6′-(2,2-dimethylpropyl)-3-methyl-3′,4′-dihydrospiro[cyclobutane-1,2′-pyrano[2,3-b]pyridin]-4′-yl)amino)-2-hydroxypropyl)acetamide]	–

The next lines start with the compound.

SMILES	IC50 [1] [nM]	IC50 [2] [nM]	further results
CC(=O)N[C@@H](Cc1cc(F)cc(F)c1)[C@H](O)CN[C@H]1CC2(CCC2)Oc2ccc(-n3nccn3)cc21 [compound 791]	803	–	–
CC(=O)N[C@@H](Cc1ccc(F)cc1)[C@H](O)CN[C@H]1CC(C)(C)Oc2c1cc(CC(C)(C)C)nc2Cl [compound 761]	126	–	–
CC(=O)N[C@@H](Cc1ccc(F)cc1)[C@H](O)CN[C@H]1CC2(CCC2)Oc2c1cc(CC(C)(C)C)cc2N1CCOCC1 [compound 536]	–	2090	–
COCC(=O)N[C@@H](Cc1cccc(C#N)c1)[C@H](O)CN[C@H]1CC2(CCC2)Oc2ccc(C(=O)OC)cc21 [compound 730]	1020	–	–
CCCCC(O)c1cnc2c(c1)[C@@H](NC[C@@H](O)[C@H](Cc1ccc(F)cc1)NC(C)=O)CC1(CCC1)O2 (stereo partly drawn) [compound 684]	–	2860	–
CC(=O)N[C@@H](Cc1ccc(F)cc1)[C@H](O)CN[C@H]1CC2(CCC2)Oc2ncc([C@H](F)C(C)C)cc21 [compound 552, N-((1S,2R)-3-(((4′S)-6′-((1R)-1-fluoro-2-methylpropyl)-3′,4′-dihydrospiro[cyclobutane-1,2′-pyrano[2,3-b]pyridin]-4′-yl)amino)-1-((4-fluorophenyl)methyl)-2-hydroxypropyl)acetamide]	–	1260	–
CC(=O)N[C@@H](Cc1ccccc1)[C@H](O)CN[C@H]1CC2(CCC2)Oc2ccc(-c3ccn(C)n3)cc21 [compound 783]	3240	–	–
COC(=O)N[C@@H](Cc1ccccc1)[C@H](O)CN[C@H]1CC(C)(C)Cc2sc(CC(C)(C)C)cc21 [compound 655, methyl ((1S,2R)-3-(((4S)-2-(2,2-dimethylpropyl)-6,6-dimethyl-4,5,6,7-tetrahydro-1-benzothien-4-yl)amino)-2-hydroxy-1-(phenylmethyl)propyl)carbamate]	–	105	–
CC(=O)N[C@@H](Cc1ccc(F)cc1)[C@H](O)CN[C@H]1CC2(CCC2)Oc2c1cc(CC(C)(C)C)nc2N(C)C [compound 588]	–	52.3	–
CC(=O)N[C@@H](Cc1cc(F)cc(N(C)C)c1)[C@H](O)CN[C@H]1CC(C)(C)Oc2c1cc(CC(C)(C)C)nc2N(C)C [compound 756]	200	–	–
CC(=O)N[C@@H](Cc1cccc(C(N)=O)c1)[C@H](O)CN[C@H]1CC2(CCC2)Oc2ncc(CC(C)C)cc21 [compound 848]	12.8	–	–
CC(=O)N[C@@H](Cc1cc(F)cc(F)c1)[C@H](O)CN[C@H]1CC2(CCC2)Oc2c1cc(Cl)cc2-n1cccn1 [compound 776]	124	–	–
CC(=O)N[C@@H](Cc1cccc(F)c1F)[C@H](O)CN[C@H]1CC2(CCC2)Oc2nc(F)c(CC(C)C)cc21 [compound 856]	206	–	–
CC(=O)N[C@@H](Cc1cccc(F)c1)[C@H](O)CN[C@H]1CC2(CCC2)Oc2c1cc(CC(C)(C)C)nc2NCCNC(=O)OC(C)(C)C [compound 603]	–	12.9	–
CC(C)(C)Cc1cnc2c(c1)[C@@H](NC[C@@H](O)[C@H](Cc1ccc(F)cc1)NC(=O)CF)CC1(CCC1)O2 [compound 629]	–	–	IC50: 12.6 nM
CC(=O)N[C@@H](Cc1ccccc1)[C@H](O)CN[C@H]1CC2(CCC2)Oc2c1cc(CC(C)(C)C)nc2N1CCCC1 [compound 755]	6.5	–	–
CC(=O)N[C@@H](Cc1ccccc1)[C@H](O)CN[C@H]1CC2(CCC2)Oc2ccc(OC(C)C)cc21 [compound 823, N-((2S,3R)-3-hydroxy-4-((S)-6-isopropoxy-2,2-spirocyclobutyl-chroman-4-ylamino)-1-phenylbutan-2-yl)acetamide]	310	–	–
CC(=O)N[C@@H](Cc1cccc(F)c1)[C@H](O)CN[C@H]1CC2(CCC2)Oc2cc(F)c(-n3cccn3)cc21 [compound 807]	489	–	–
CCc1cc(NC)c2c(c1)[C@@H](NC[C@@H](O)[C@H](Cc1ccccc1)NC(C)=O)CC(C)(C)O2 [compound 535]	–	924	–
Cc1nccn1CC(=O)N[C@@H](Cc1ccccc1)[C@H](O)CN[C@H]1CC2(CCC2)Oc2ccc(CC(C)(C)C)cc21 [compound 744, N-((1S,2R)-3-(((4S)-6-(2,2-dimethylpropyl)-3,4-dihydrospiro[chromene-2,1′-cyclobutan]-4-yl)amino)-2-hydroxy-1-(phenylmethyl)propyl)-2-(1H-2-methyl-imidazol-1-yl) acetamide]	5.72	–	–
